The values below come from patent publication US8492404B2, “Bis-aryl amide compounds and methods of use” (Amgen Inc., priority 2005, dated 2013).

Experiment [1] has as its target T1, c-kit kinase enzyme (Homo sapiens, UniProt P10721).
T1 construct: cKIT (6.25 μM) (catalytic domain, N-terminal GST tagged, unphosphorylated)
The experiment can be described thus: cKIT-Homogeneous Time Resolved Fluorescent (HTRF) Kinase Assay. The experiment is classed as biochemical. Conditions: read-out: average IC50 value for the inhibition of the c-kit kinase enzyme. How it is done:
cKIT-Homogeneous Time Resolved Fluorescent (HTRF) Kinase Assay:
The purpose of this assay is to measure the inhibition of cKIT enzyme activity (autophosphorylation and phosphorylation of substrate) by small molecule test compounds. The cKIT HTRF assay begins with cKIT-catalyzed phosphorylation of biotinylated peptide Her-2 (N-[…]-C) in the presence of ATP. The cKIT enzyme reaction is comprised of 1 μL of compound in 100% DMSO, 15 μL of 2× substrate mix (50 μM ATP and 2 μM biotinylated Her-2) and 15 μL of 2× cKIT (6.25 μM) (catalytic domain, N-terminal GST tagged, unphosphorylated) in 4 mM DTT all diluted in enzyme buffer (25 mM HEPES pH 7.5, 12.5 mM NaCl, 50 mM MgCl, 0.05% BSA). The reaction incubates for 90 min at room temperature. One-hundred and sixty microliters of detection mixture containing 0.47 μg/mL steptavidin allophycocyanin and 29.7 pM europylated anti-phosphotyrosine Ab (PT66, Perkin Elmer) in HTRF buffer (100 mM Hepes pH 7.5, 100 mM NaCl, 0.1% BSA, 0.05% Tween 20) is then added to stop the reaction by diluting out the enzyme as well as to enable quantitation of phosphorylated Her-2. After 3 h at room temperature, the detection reaction is read in a Packard Discovery™ (model BD1000) plate reader. The wells are excited with coherent […] light and the ratio of delayed ([…] post excitation) emissions at […] (native europium fluorescence) and 665 nm (europium fluorescence transferred to allophycocyanin—an index of substrate phosphorylation) is determined. The proportion of substrate phosphorylated in the kinase reaction in the presence of compound compared with that phosphorylated in the presence of DMSO vehicle alone (HI control) is calculated using the formula: % control (POC)=(cpd−average LO)/(average HI−average LO)*100. Data (consisting of POC and inhibitor concentration in μM) is fitted to a 4-parameter equation (y=A+((B−A)/(1+((x/C)^D))), where A is the minimum y (POC) value, B is the maximum y (POC), C is the x (cpd concentration) at the point of inflection and D is the slope factor) using a Levenburg-Marquardt non-linear regression algorithm.
For orientation: In TR-FRET formats the signal depends on donor and acceptor labels being close together.

For experiment [2], the target named is T2, Lck kinase enzyme (Homo sapiens, UniProt P06239).
T2 construct: LCK KD GST (225-509); GST
T2 sequence (P06239 225-509): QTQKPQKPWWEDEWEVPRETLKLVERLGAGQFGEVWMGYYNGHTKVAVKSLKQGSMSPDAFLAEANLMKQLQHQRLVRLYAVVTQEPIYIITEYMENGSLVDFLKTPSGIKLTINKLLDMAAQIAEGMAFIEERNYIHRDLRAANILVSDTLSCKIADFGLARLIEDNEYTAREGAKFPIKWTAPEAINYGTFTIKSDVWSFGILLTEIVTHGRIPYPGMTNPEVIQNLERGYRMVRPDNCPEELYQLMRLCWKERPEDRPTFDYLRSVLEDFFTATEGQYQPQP
Description: LCK-Homogeneous Time Resolved Fluorescent (HTRF) Kinase Assay. Format: biochemical. Conditions: read-out: average IC50 value for the inhibition of the Lck kinase enzyme. How it is done:
LCK-Homogeneous Time Resolved Fluorescent (HTRF) Kinase Assay:
The LCK HTRF assay begins with LCK in the presence of ATP phosphorylating the biotinylated peptide Gastrin. The reaction incubates for 90 min. To quench the assay detection reagents are added which both stop the reaction by diluting out the enzyme and chelating the metals due to the presence of EDTA. Once the detection reagents are added the assay incubates for 30 min to allow for equilibration of the detection reagents. […] Buffer conditions are as follows: 50 mM HEPES pH 7.5, 50 mM NaCl, 20 mM MgCl, 5 mM MnCl, 2 mM DTT, 0.05% BSA.
The assay is quenched and stopped with 160 μL of detection reagent. Detection reagents are as follows: Buffer made of 50 mM Tris, pH 7.5, 100 mM NaCl, 3 mM EDTA, 0.05% BSA, 0.1% Tween20.
The assay plate is read in either a Discovery or a RubyStar.

Some results are limits rather than exact numbers.

T1 sequence (P10721 589-937 limits assumed): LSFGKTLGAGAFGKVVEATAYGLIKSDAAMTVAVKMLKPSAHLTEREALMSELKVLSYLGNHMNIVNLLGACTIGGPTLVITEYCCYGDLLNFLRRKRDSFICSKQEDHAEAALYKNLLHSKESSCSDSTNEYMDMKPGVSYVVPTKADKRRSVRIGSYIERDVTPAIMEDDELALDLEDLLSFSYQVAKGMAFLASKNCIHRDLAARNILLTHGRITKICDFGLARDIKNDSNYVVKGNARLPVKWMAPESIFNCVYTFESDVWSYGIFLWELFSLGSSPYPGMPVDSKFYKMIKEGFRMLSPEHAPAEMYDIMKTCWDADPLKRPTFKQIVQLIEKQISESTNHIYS

As to `Cc1ccc(NC(=O)c2cccc(C(F)(F)F)c2)cc1C(=O)Nc1cnc(N)nc1` [Example 1, N-(2-amino-5-pyrimidinyl)-2-methyl-5-(((3-(trifluoromethyl)phenyl)carbonyl)amino)benzamide], the half-maximal inhibitory concentration (IC50) in experiment [1] is not above 10 µM.
The same measure, in the same setting: in the case of `Cc1ccc(NC(=O)c2cccc(C(F)(F)F)c2)cc1C(=O)Nc1cnc(NCCN2CCOCC2)nc1` [Example 2] it was not above 10 µM.
With `Cc1ccc(NC(=O)Nc2cccc(C(F)(F)F)c2)cc1C(=O)Nc1cncnc1` [Example 88, 1-(4-methyl-3-(pyrimidin-5-ylcarbamoyl)phenyl)-3-(3-(trifluoromethyl)phenyl)urea], the IC50 in experiment [2] and in experiment [1] was not above 10 µM in each case.
As for `Cc1ccc(NC(=O)Nc2cccc(C(F)(F)F)c2)cc1C(=O)Nc1cnc(N)nc1` [Example 90, N-(2-amino-5-pyrimidinyl)-2-methyl-5-((((3-(trifluoromethyl)phenyl)amino)carbonyl)amino)benzamide], the 50% inhibitory concentration (IC50) in experiment [1] is not above 10 µM.
As to `Cc1ccc(NC(=O)c2cc3ccccc3n2C)cc1C(=O)Nc1cnc(Nc2ccc(N3CCN(C)CC3)cc2)nc1` [Example 96, 1-methyl-N-(4-methyl-3-((2-(4-(4-methylpiperazin-1-yl)phenylamino)pyrimidin-5-yl)carbamoyl)phenyl)-1H-indole-2-carboxamide], the IC50 in experiment [2] and in experiment [1] was not above 10 µM throughout.
On to `Cc1ccc(NC(=O)c2ccc3ncsc3c2)cc1C(=O)Nc1cnc(N)nc1` [Example 109, N-(3-((2-aminopyrimidin-5-yl)carbamoyl)-4-methylphenyl)benzo[d] thiazole-6-carboxamide], for which, in experiment [1], the half-inhibitory concentration (IC50) was not above 10 µM.
As for `Cc1ccc(NC(=O)c2ccc3[nH]ccc3c2)cc1C(=O)Nc1cnc(N)nc1` [Example 110, N-(3-((2-aminopyrimidin-5-yl)carbamoyl)-4-methylphenyl)-1H-indole-5-carboxamide], in experiment [1], the concentration for half-maximal inhibition (IC50) was not above 10 µM.
Regarding `Cc1ccc(NC(=O)c2cc(I)ccc2O)cc1C(=O)Nc1cnc(Nc2ccc(N3CCN(C)CC3)cc2)nc1` [Example 112, 2-hydroxy-5-iodo-N-(4-methyl-3-(((2-((4-(4-methyl-1-piperazinyl)phenyl)amino)-5-pyrimidinyl)amino)carbonyl)phenyl) benzamide], the half-inhibitory concentration (IC50) in experiment [1] was not above 10 µM.
With `Cc1ccc(NC(=O)c2ccc(Cl)c(C(F)(F)F)c2)cc1C(=O)Nc1cnc(Nc2ccc(N3CCN(C)CC3)cc2)nc1` [Example 113, 4-chloro-N-(4-methyl-3-(((2-((4-(4-methyl-1-piperazinyl)phenyl)amino)-5-pyrimidinyl)amino)carbonyl)phenyl)-3-(trifluoromethyl) benzamide], the IC50 in experiment [1] is not above 10 µM.
On the same count and under the same terms, in the case of `Cc1ccc(NC(=O)c2csc(-c3cccs3)n2)cc1C(=O)Nc1cnc(Nc2ccc(N3CCN(C)CC3)cc2)nc1` [Example 141] it was not above 10 µM.
The same measure, in the same setting: in the case of `Cc1ccc(C(=O)NCCC2CCCCC2)cc1C(=O)Nc1ccc(N)nc1` [Example 182, N~3~-(6-amino-3-pyridinyl)-N~1~-(2-cyclohexylethyl)-4-methyl-1,3-benzenedicarboxamide] it was not above 10 µM; in that of `Cc1ccc(C(=O)NCCC2CCCC2)cc1C(=O)Nc1ccc(NC(=O)c2c[nH]cn2)nc1` [Example 206, N~1~-(2-cyclopentylethyl)-N~3~-(6-((1H-imidazol-4-ylcarbonyl)amino)-3-pyridinyl)-4-methyl-1,3-benzenedicarboxamide], not above 10 µM.

One may read the IC50 as the concentration needed to halve the response being measured.
